Test results reported in PubChem BioAssay (NCI).
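Values below derive from 48-hour exposures of cells grown in 96-well plates, with endpoints linearly interpolated between the two concentrations bracketing the appropriate inhibition level. TGI marks complete inhibition of growth.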

Legend:
Test in all cases: NCI anticancer screen, dose series, 48 h
[1] = tested on: COLO 205 colon
[2] = tested on: HCT-116 colon
[3] = tested on: HCT-15 colon
[4] = tested on: HS 578T breast
[5] = tested on: IGROV1 ovarian
[6] = tested on: K-562 leukemia
[7] = tested on: MCF7 breast
[8] = tested on: MDA-MB-231 breast
[9] = tested on: NCI/ADR-RES ovarian
[10] = tested on: OVCAR-3 ovarian
[11] = tested on: OVCAR-5 ovarian
[12] = tested on: PC-3 prostate
[13] = tested on: RPMI-8226 leukemia
[14] = tested on: SF-539 CNS
[15] = tested on: SN12C renal
[16] = tested on: SNB-19 CNS
[17] = tested on: SNB-75 CNS
[18] = tested on: SR leukemia
[19] = tested on: TK-10 renal

Row | Compound | TGI [1] [µM] | TGI [2] [µM] | TGI [3] [µM] | TGI [4] [µM] | TGI [5] [µM] | TGI [6] [µM] | TGI [7] [µM] | TGI [8] [µM] | TGI [9] [µM] | TGI [10] [µM] | TGI [11] [µM] | TGI [12] [µM] | TGI [13] [µM] | TGI [14] [µM] | TGI [15] [µM] | TGI [16] [µM] | TGI [17] [µM] | TGI [18] [µM] | TGI [19] [µM]
1 | O=c1[nH]c2ccccc2c(=O)n1/N=C/c1ccc(O)cc1 | > 100 | > 100 | > 100 | 74.6 | > 100 | > 100 | > 100 | > 100 | > 100 | > 100 | > 100 | > 100 | > 100 | > 100 | > 100 | > 100 | > 100 | > 100 | > 100
2 | CCCCCCCCCCCCCCCCCc1cccc(OCOCCOC)c1C(=O)O | 39.7 | 39.1 | 41.2 | 42.6 | 33.5 | > 83 | 43.2 | 37.4 | 28.6 | 36.9 | 35 | 34.4 | > 72.7 | 30.1 | 46.6 | 40.6 | 31.1 | 50 | 34.3
3 | COC(=O)C(N)CCCC(N)C(=O)NC(C)C(=O)NC(CCC(=O)NCCNCCNc1c2ccccc2nc2cccc([N+](=O)[O-])c12)C(N)=O (stereo not given) | 20.4 | 24.5 | 48.6 | 38.8 | > 100 | 20.7 | 58.5 | 53.1 | > 100 | 47.7 | > 100 | 29.5 | 34.6 | 14.2 | 39.5 | > 67.7 | 26.1 | > 100 | > 94.3
4 | Nc1ccc2c(O)cc(=O)[nH]c2n1 | > 100 | > 100 | > 100 | > 100 | > 100 | > 100 | > 100 | > 100 | > 100 |  | > 100 | > 100 | > 100 | > 100 | > 100 | > 100 | > 100 | > 100 | > 100
5 | Cc1cn([C@@H]2C[C@@H]2CO)c(=O)[nH]c1=O | > 100 | > 100 | > 100 | > 100 | > 100 | > 100 | > 100 | > 100 | > 100 |  | > 100 | > 100 | > 100 | > 100 | > 100 | > 100 | > 100 | > 100 | > 100
6 | O=c1oc2ccccc2nc1/C=C(\O)c1ccc(Cl)cc1 | > 100 | > 100 | > 100 | > 100 | > 100 | > 100 | > 100 | > 100 | > 100 | > 100 | > 100 | > 100 |  | > 100 | > 100 | > 100 | > 100 | > 100 | > 100
7 | O=P12N(CCN1c1ccccc1)CCN2c1ccccc1 | > 100 | > 100 | > 100 | > 100 | > 100 | > 100 | > 100 | > 100 | > 100 | > 100 | > 100 | > 100 | > 100 | > 100 | > 100 | > 100 | > 100 | > 100 | > 100
8 | COc1ccc(N=N/C(=N/NC(=O)c2ccc(C)cc2)c2ccc(N(CCC#N)CCC#N)cc2OC)cc1 | > 100 | > 100 | > 100 | > 100 | > 100 | > 100 | > 100 | > 100 | > 100 | > 100 | > 100 | > 100 |  |  | > 100 | > 100 |  | > 100 | > 100
9 | Cc1ccc(S(=O)(=O)NC(=O)NCCc2cnc[nH]2)cc1 | > 100 | > 100 | > 100 | > 100 | > 100 | > 100 | > 100 | > 100 | > 100 | > 100 | > 100 | > 100 | > 100 | > 100 |  | > 100 | > 100 | > 100 | > 100
10 | O=c1ccn(CC2(CO)CCC2)c(=O)[nH]1 | > 100 | > 100 | > 100 | > 100 | > 100 | > 100 | > 100 | > 100 | > 100 | > 100 | > 100 | > 100 | > 100 | > 100 | > 100 |  | > 100 | > 100 | > 100
11 | COc1ccc(N=Nc2c(C)c(C#N)c(=S)n(C3OC(CO)C(O)C(O)C3O)c2-c2ccccc2)cc1 (stereo not given) | > 100 | 94 | > 100 | 55.3 | > 100 | > 100 | 84.7 | > 100 | > 100 | 55.3 | 81.6 | 66.3 | > 100 | > 100 | > 100 | > 100 | 49.1 | > 100 | 94.8
12 | O=C(O)CCCC(=O)Nn1c(Cc2ccc(Cl)cc2)n[nH]c1=O | > 100 | > 100 | > 100 | > 100 | > 100 | > 100 | > 100 | > 100 | > 100 | > 100 | > 100 | > 100 | > 100 |  | > 100 |  |  | > 100 | > 100
13 | CCOC(=O)c1nc2ccc(C(F)(F)F)cc2nc1NCc1ccc(OC)cc1 | > 100 | > 100 | > 100 | > 100 | > 100 | > 100 | > 100 | > 100 | > 100 | > 100 | > 100 | > 100 | > 100 | > 100 |  | > 100 | > 100 | > 100 | > 100
14 | Cc1ccc(NC(Nc2ccc(C)cc2C)=C(C(Cl)=C(Cl)Cl)[N+](=O)[O-])c(C)c1 | 32 | 26.7 | 32.3 | > 100 | 29.2 | 24.6 | > 100 | 33 | > 100 | 29.7 |  | 25 | 52.8 | 43 | 33 | 30 | 22.1 | 11.3 | 33
15 | O=c1[nH]c(=O)n(COCc2ccccc2)c2ccsc12 | > 100 | > 100 | > 100 | > 100 | > 100 | > 100 | > 100 | > 100 | > 100 |  | > 100 | > 100 | > 100 | > 100 | > 100 | > 100 | > 100 | > 100 | > 100
16 | O=C(O)CN1C=C(C(=O)c2cc3ccccc3n2S(=O)(=O)c2ccccc2)CCC1 | 42.5 | > 100 | > 100 | > 100 | > 100 | > 100 | > 100 | > 100 | > 100 | > 100 | > 100 | > 100 |  | > 100 |  | > 100 | > 100 | > 100 | > 100
17 | N#Cc1nc(CCN2C(=O)c3ccccc3C2=O)oc1N | > 100 | > 100 | > 100 | > 100 | > 100 | > 100 | > 100 | > 100 | > 100 | > 100 | > 100 | > 100 | > 100 | > 100 | > 100 | > 100 |  | > 100 | > 100
18 | CC(NC(=O)/C(=C/c1ccccc1)NC(=O)c1ccccc1)C(=O)O (stereo not given) | > 100 | > 100 | > 100 | > 100 | > 100 | > 100 | > 100 | > 100 | > 100 | > 100 | > 100 | > 100 | > 100 | 96.6 | > 100 | > 100 | > 100 | > 100 | 
19 | Cc1nc(N)c(N2CCN(C(=O)O)CC2)c(=O)[nH]1 | > 100 | > 100 | > 100 | > 100 |  | > 100 | > 100 | > 100 | > 100 | > 100 | > 100 | > 100 | > 100 | > 100 | > 100 | > 100 | > 100 | > 100 | > 100
20 | C=CCn1c(-c2ccc([N+](=O)[O-])cc2)cs/c1=N\C(P(=O)(O)O)P(=O)(O)O | > 100 | > 100 | > 100 | > 100 | > 100 | > 100 | > 100 | > 100 | > 100 | > 100 | > 100 | > 100 | > 100 | > 100 |  | > 100 | > 100 | > 100 | > 100
